Patent EP0326418A1, “GRF analogs” (THE UPJOHN COMPANY, priority 1988, dated 1989)
Where a SMILES comes first, the peptide text is derived from it. [ ]: non-standard residue; d: D form. Cya = N[C@@H](CS(=O)(=O)O)C(=O)O

Experiments:
[1] = test system: bovine anterior pituitary cell culture; format: cell-based
[2] = proteolytic stability in bovine plasma (HPLC, modified Frohman method); conditions: bovine plasma
meal-fed Holstein steers = experiment: serum growth hormone (GH) response after intravenous injection in steers (Procedure B); format: in vivo; conditions: in comparison to the standard bGRF(1-44)NH₂ (Area 100%), procedure B, second study
Source text: The synthetic peptides prepared in Examples 1, 2 and 3 (Compounds 1, 2 and 3 respectively), bGRF(1-44)NH2 and […] bGRF(1-32)NH2 were also given to meal-fed Holstein steers by intravenous injection (Procedure B) and the serum growth hormone (GH) response evaluated. […] In comparison to bGRF(1-44)NH2 (100%), the area under the GH response curve was 122% for […] bGRF(1-32)NH2, 100% for Compound #1, 106% for Compound #2, and 111% for Compound #3. Holstein steers (265 +/- 5kg) were housed in individual stalls 18-20°C) and exposed to 16h light:8h darkness (lights on at 0400h). Steers are meal-fed once daily at 1000h and trained to consume their total daily feed intake in 2 h. The diet consisted of rolled corn plus a mineral/vitamin premix and alfalfa hay cubes fed at 160% maintenance energy requirements on a bodyweight basis. Steers gained approximately 0.75 kg/h/d. In a 5 x […] Latin Square design 10 steers were assigned randomly to receive the following treatments. (a) bGRF(1-44)NH2, (b) […] bGRF(1-32)NH2, (c) Compound #3, (d) Compound #1, and (e) Compound #2. The GRFs were dissolves in saline (10μg/ml) and administered at 3nM/100 kg bodyweight as single iv injection at 0800 h, 2 h between feeding. A cannula was inserted into a jugular vein at least one day before treatment. Blood (6 ml) was collected at 20-min interval from 40 min before until 120 min after injection with additional samples collected at 5, 10 and 15 min after injection. Serum obtained from the samples was assayed from GH concentration. The number of steers responding to injection fo the various GRFs tested (P=0.42) ranged from 9 of 10 to 10 of 10 depending on the treatment. Using procedure B, compounds were tested for growth hormone release in steers. In comparison to the standard bGRF(1-44)NH2 (Area 100%), the test compounds gave the following relative growth hormone areas: Compound 4, 233%; compound 5, 140%; compound 6, 160%; compound 7, 126%; compound 8, 307%; compound 9, 260%; and compound 11, 173%.

CC[C@H](C)[C@H](NC(=O)[C@H](C)NC(=O)[C@H](CS(=O)(=O)O)NC(=O)[C@@H](C)NC(=O)[C@@H](N)Cc1c[nH]cn1)C(=O)N[C@@H](Cc1ccccc1)C(=O)N[C@H](C(=O)N[C@@H](CC(N)=O)C(=O)N[C@@H](CO)C(=O)N[C@@H](Cc1ccc(O)cc1)C(=O)N[C@@H](CCCNC(=N)N)C(=O)N[C@@H](CCCCN)C(=O)N[C@H](C(=O)N[C@@H](CC(C)C)C(=O)N[C@@H](C)C(=O)N[C@@H](CCC(N)=O)C(=O)N[C@@H](CC(C)C)C(=O)N[C@@H](CO)C(=O)N[C@@H](C)C(=O)N[C@@H](CCCNC(=N)N)C(=O)N[C@@H](CCCCN)C(=O)N[C@@H](CC(C)C)C(=O)N[C@@H](CC(C)C)C(=O)N[C@@H](CCC(N)=O)C(=O)N[C@@H](CC(=O)O)C(=O)N[C@H](C(=O)N[C@@H](CC(C)C)C(=O)N[C@@H](CC(N)=O)C(=O)N[C@@H](CCCNC(=N)N)C(=O)N[C@@H](CCC(N)=O)C(=O)N[C@@H](CCC(N)=O)C(=O)NCC(N)=O)[C@@H](C)CC)C(C)C)[C@@H](C)O [Compound 11, His¹, D-Ala², Cya³, Ala¹⁵, Leu²⁷-bGRF(1-32)NH₂] (H-H[dA][Cya]AIFTNSYRKVLAQLSARKLLQDILNRQQG-NH2)
the potency of bGRF(1-44)NH₂ [1]: 0.28 | remaining at 1 h [2]: 86% | relative growth hormone areas (meal-fed Holstein steers): 173%
